# Entries after “also recorded” stand apart in the source; their conditions may differ.
# Experiments:
# [1] = biological target: T1, mKv1.3 channels (Mus musculus, UniProt P16390); assay: Whole-cell patch-clamp block of Kv1.3 currents in L929 fibroblasts stably expressing mKv1.3; format: cell-based
# T1 construct: expressed in transfected cells
# Method: In the absence of antibodies directed to ShK-235, the inventors used functional assays to identify and quantify ShK-235 expression and secretion into culture supernatants of LrS235. In more detail, the presence of active peptide was assayed by using whole-cell patch-clamp to test the ability of LrS235 supernatants to block Kv1.3 channels in mouse L929 fibroblasts stably expressing mKv1.3 channels. LrS235 and LrGusA were grown to mid-exponential phase and induced for expression of ShK-235 or GusA, and supernatants were processed as described in the materials and methods. […] Culture supernatant from LrS235 and LrGusA was tested for Kv1.3 channel block and the dose-response curve used to calculate the concentration of ShK-235 in supernatants.
# Patch-clamp electrophysiology. To determine the concentration of ShK-235 in the LrS235 supernatants and rat sera, a dose-response of ShK-235 block of Kv1.3 was determined by adding known concentrations of the peptide to naïve rat serum and then testing by whole-cell patch-clamp of mouse L929 fibroblasts stably expressing mKv1.3 channels (45) using a PORT-A-PATCH® automated patch-clamp system (Nanion, Livingston, NJ), as described (16, 46). Culture supernatants and serum samples were then assessed with the same technique, and the dose-response curve was used to determine peptide concentration.
# [2] = test system: Kv1.3 versus Kv1.1 and other ion channels; assay: Selectivity for Kv1.3 over other channels by whole-cell patch-clamp; format: cell-based; conditions: FIG. 5E
# From the text: FIGS. 5A-5E. […] FIG. 5A. Whole-cell Kv1.3 currents before (control) and after addition of 100 pM ShK-235. FIG. 5B. Dose-response effects of ShK-235 on Kv1.3 currents (n=4 cells per concentration). FIG. 5C. Dose-response of mKv1.3 block by synthetic ShK-235. N=3 cells per concentration. […] FIG. 5D. Representative traces of the block of mKv1.3 currents by 100 pM synthetic ShK-235. FIG. 5E. Selectivity of ShK-235 against Kv1.x channels determined by whole-cell patch-clamp.
# [3] = test system: CIA and PIA rat models of RA; assay: Early and late treatment of CIA and PIA by LrS235; conditions: in vivo
# From the text: Early and late treatment of CIA and PIA by LrS235. The objective of these experiments is to define the benefits of LrS235 as an oral delivery system for ShK-235 in reducing joint damage and local and systemic inflammation in rat models of RA and compare its efficacy to that of injected ShK-235 and ShK-235 delivered via an enteric-coated capsule. CIA is induced in Lewis rats by two injections at a week interval of an emulsion of porcine collagen II in incomplete Freund's adjuvant at the base of the tail^36,40,65,66. PIA is induced in DA rats by the single injection of pristane at the base of the tail. Clinical signs of CIA are observed in some aspects 3-6 days after the booster injection and clinical signs of PIA are observed in some aspects 2-3 weeks after the pristane injection. Clinical signs are scored daily based on the number of joints affected and the severity of the swelling, as in FIG. 7A. […]
# Rats start receiving daily treatments either at onset of clinical signs (early treatment), or 10 days later, at peak of disease severity (late treatment). […] Rats are monitored daily for body weight and scored for clinical signs of arthritis using a standard scoring method^36,40,65,66 described in herein (FIG. 7A). […] At the end of the trials, animals are euthanized for collection of blood, hind limbs, inguinal lymph nodes, and small and large intestines, and the following is measured: […]
# [4] = test system: human and rat TEM cells; conditions: cited from earlier work
# [5] = test system: anti-ShK-235 IgG; assay: Immunogenicity ELISA on sera of CIA rats; format: in vivo, rat; conditions: sera at end of 21-day CIA trial
# Method: To test if ShK-235 produced by LrS235 is immunogenic, the sera of rats were assessed at the end of the 21-day CIA trial shown in FIG. 8 for anti-ShK-235 IgG by ELISA assay. Plates coated with collagen II and HsTX1[R14A] were used as controls. HsTX1[R14A] is another peptide blocker of Kv1.3 with no sequence or structural homology to ShK-235.
# Immunogenicity assays in rats with CIA. High-protein binding 96-well microplates (3855, ThermoFisher, MA, US) were coated overnight with 10 μg/ml of either porcine collagen II (20031, Chondrex, Woodinville, WI), ShK-235, or HsTX1[R14A], dissolved in PBS. Non-specific binding sites were blocked with PBS+5% skimmed milk and washed with PBS+0.05% Tween 20 before adding serum from the CIA rats, diluted in PBS. After washes, anti-rat IgG antibodies conjugated to horseradish peroxidase (1 μg/ml; Pierce catalog 31471, lot UA280036) were added to all the wells. One-step TMB-ELISA (34028, ThermoFisher, MA, US) was used to detect absorbance on a plate reader at 650 nm.
# T1 sequence (P16390 whole entry): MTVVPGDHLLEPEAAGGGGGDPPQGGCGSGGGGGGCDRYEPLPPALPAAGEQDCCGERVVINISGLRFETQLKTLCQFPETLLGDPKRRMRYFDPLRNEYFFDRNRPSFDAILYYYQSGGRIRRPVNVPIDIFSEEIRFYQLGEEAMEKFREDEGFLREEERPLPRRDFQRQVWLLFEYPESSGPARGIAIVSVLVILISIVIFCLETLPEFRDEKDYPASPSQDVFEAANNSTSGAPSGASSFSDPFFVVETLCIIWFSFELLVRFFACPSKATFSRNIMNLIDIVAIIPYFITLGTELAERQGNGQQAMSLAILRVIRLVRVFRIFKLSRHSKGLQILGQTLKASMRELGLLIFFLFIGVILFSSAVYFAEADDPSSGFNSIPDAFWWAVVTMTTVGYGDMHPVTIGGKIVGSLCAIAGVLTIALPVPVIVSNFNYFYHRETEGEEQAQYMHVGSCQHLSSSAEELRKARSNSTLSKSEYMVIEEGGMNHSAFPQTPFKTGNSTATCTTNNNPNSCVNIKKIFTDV
smiles,measurement,setting,value
CC[C@H](C)[C@@H]1NC(=O)[C@H](CO)NC(=O)[C@H](Cc2c[nH]cn2)NC(=O)[C@H](CCCCN)NC(=O)[C@@H]2CSSC[C@@H]3NC(=O)[C@H]([C@@H](C)O)NC(=O)[C@H](CCCCN)NC(=O)[C@H](CCCNC(=N)N)NC(=O)[C@H](CSSC[C@H](NC(=O)[C@H](CCCNC(=N)N)NC(=O)[C@H](CO)NC(=O)[C@H](CCCCN)NC(=O)[C@@H]4CCCN4C(=O)[C@H]([C@@H](C)CC)NC(=O)[C@H]([C@@H](C)O)NC(=O)[C@H](CC(=O)O)NC(=O)[C@H]([C@@H](C)CC)NC(=O)[C@@H](NC(=O)[C@H](CO)NC(=O)[C@@H](N)CCCNC(=N)N)CSSC[C@@H](C(=O)N[C@@H](C)C(=O)O)NC(=O)[C@H]([C@@H](C)O)NC(=O)CNC3=O)C(=O)N[C@@H]([C@@H](C)O)C(=O)N[C@@H](C)C(=O)N[C@@H](Cc3ccccc3)C(=O)N[C@@H](CCCCN)C(=O)N2)NC(=O)[C@H](Cc2ccccc2)NC(=O)[C@H](CO)NC(=O)[C@H](CC(C)C)NC(=O)[C@H](CCCNC(=N)N)NC(=O)[C@H](Cc2ccc(O)cc2)NC(=O)[C@H](CCCCN)NC1=O [ShK-235],IC50,[1],0.0693 ± 0.024 nM
same,Selectivity for Kv1.3 over other channels,[2],"≥ 2,200 fold"
same,Effect on incidence and severity of CIA and PIA,[3],reduce the incidence
same,Effect on activation and function of human and rat naïve and TCM cells,[4],little to no effect
same,Inhibition of activation of human and rat TEM cells,[4],preferentially inhibits
same,Anti-ShK-235 IgG titers / immunogenicity,[5],very low titers; also recorded: not immunogenic
